Reference: patent publication US5254801A, “Heterologous dominant conditional lethal gene which is a phosphonate monoester hydrolase and use thereof in plants” (Monsanto Company, priority 1990, dated 1993)
“Also recorded” adds a separate entry of the source.

Columns and labels:
[1] = target: T1, phosphonate monoester hydrolase (PEH) (Trinickia caryophylli, UniProt Q45087); test: Hydrolysis of protoxin to glyphosate by phosphonate monoester hydrolase; assay type: biochemical, Pseudomonas caryophilli PG2982
T1 sequence (Q45087 1-514): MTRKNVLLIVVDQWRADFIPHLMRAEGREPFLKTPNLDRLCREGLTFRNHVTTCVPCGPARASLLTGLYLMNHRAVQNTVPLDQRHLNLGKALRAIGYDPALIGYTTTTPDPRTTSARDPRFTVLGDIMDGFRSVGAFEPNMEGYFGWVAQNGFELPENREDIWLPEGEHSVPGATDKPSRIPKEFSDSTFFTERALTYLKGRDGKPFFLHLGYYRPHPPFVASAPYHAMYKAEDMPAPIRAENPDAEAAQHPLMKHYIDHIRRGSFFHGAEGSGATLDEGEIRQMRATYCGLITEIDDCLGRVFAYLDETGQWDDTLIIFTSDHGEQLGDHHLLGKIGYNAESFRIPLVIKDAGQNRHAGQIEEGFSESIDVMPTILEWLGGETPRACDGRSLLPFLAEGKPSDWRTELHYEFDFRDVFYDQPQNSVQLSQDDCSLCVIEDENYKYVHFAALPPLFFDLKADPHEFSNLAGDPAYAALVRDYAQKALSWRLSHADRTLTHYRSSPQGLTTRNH
Description: The critical tests for a prophytotoxin to be used in negative selection, cell ablation and as a gametocide are that the compound is non-phytotoxic per se but can be hydrolyzed into a phytotoxin by the phosphonate monoester hydrolase protein. The most general and specific method to determine if a protoxin is hydrolyzed to a toxic form of glyphosate is a HPLC assay. The compounds are dissolved at 100 mM concentration in a suitable buffer such as 10 mM TAPS, (N-Tris(hydroxymethyl)methyl-2-aminopropane sulfonic acid) pH 9.0. Triplicate samples (0.1 ml) of the compound are then diluted with 0.9 ml of 10 mM TAPS, pH 9.0 and with 0.9 ml 10 mM TAPS, pH 9.0 plus one unit (1 μmol/min) of enzyme. After 24 hour incubation at 25° C., the samples are injected onto a HPLC column for glyphosate analysis. […] The protoxin and glyphosate are separated on an anion exchange column. the glyphosate is oxidized as it elutes in the presence of bleach and is then derivatized by o-pthaldehyde to a fluorescent derivative which can be quantitatively measured by a fluorescence monitor. […] After two days, the plant is dissected into individual tissues and the amount of protoxin in each tissue determined. […] The tissue samples were then combusted and the amount of radiolabelled compound in each tissue determined by scintillation counting. […]

[2] = test system: pMON9429 transgenic Arabidopsis calli (pehA:1); test: Callus viability on SIM medium with glyceryl glyphosate; assay type: cell-based
Description: Arabidopsis was cultured and transformed essentially as described by Valvekens et al., 1988. Arabidopsis ecotype RLD seeds were sterilized in 5% chlorox, 0.05%. Tween20 for 20 min, washed with sterile H2 O and plated on MSO medium (MS salts with minimal organics (Sigma), 0.5 g MES/l pH 5.7, 1% sucrose and 0.8% agar). After 3 weeks the roots were cut away from the shoots and precultured 3 days on callus inducing medium (CIM; Gamborg's B5 salts (Sigma), 2% glucose, 0.5 g/l MES, pH 5.7, 0.8% agar, 0.5 mg/l 2,4-D and 0.05 mg/l kinetin). The roots were than grouped in small bundles of 5-7 roots and cut into 0.5 cm pieces. The root pieces were mixed with a fresh overnight culture of ABI Agrobacterium containing a previously described plant gene expression vector diluted 1:20 in liquid MSO (without agar). After two minutes, the roots were transferred to fresh CIM plates for a two day co-culture. After co-culture, the root pieces were washed 2X with liquid MSO medium and plated on shoot inducing medium (SIM; Gamborg's B5 salts, 2% glucose, 0.5 g/l MES, pH 5.7, 5 mg/l N^6 -(2-isopentenyl)adenine, 0.15 mg/l indole-3-acetic acid, 500 mg/l carbenicillin, 100 mg/l kanamycin and 0.8% agar. Callus which continued to grow and remain green were transformed to fresh SIM after two weeks. As rosettes began to form, they were cut away from the callus and transferred to MSO medium with 1 mg/l indole-3-butyric acid in sterile sundae cups to initiate root formation. After the plants had formed roots they were transferred to soil and grown to maturity to obtain seed.
Arabidopsis calli transformed with either pMON9429 or pMON9443 which were expressing the selectable marker NPT-II gene as evidenced by growth on 100 μg/ml kanamycin were then evaluated for pehA expression. The calli were transferred to SIM medium containing 100 μg/ml kanamycin and 1 mM glyceryl glyphosate. After 4 weeks, calli were scored for growth and ability to initiate shoots and leaves (+) or for necrosis (-).

[3] = 1 mM glyceryl glyphosate, 4 weeks, 6 lines scored

## O=C(O)CNCP(=O)(O)OCC(O)CO (stereo not shown) [glyceryl glyphosate, glycine, N-([hydroxy (2,3 dihydroxy propoxy)phosphonyl]methyl)]
[1]
  Substrate for / hydrolysis by phosphonate monoester hydrolase: is a substrate for the phosphonate monoester hydrolases; also recorded: hydrolyze the glyceryl glyphosate into glycerol and glyphosate
[2]; [3]
  Viability Score: Growth: 1 number of lines
  Viability Score: Necrosis: 5 number of lines
[2]; medium containing glyceryl glyphosate, pMON9429 calli
  Callus phenotype on protoxin (in words): lethality
